Test results published in article PMC7561186, “Rational design of balanced dual-targeting antibiotics with limited resistance” (PLoS Biology, 2020).
≈ marks a conversion by molar mass, not a printed value. Like-named read-outs stand apart in the source and are kept apart here.

System: S. aureus clinical isolates
Experiment: microbe, parasite or virus in culture
Type: cell-based
Conditions: Staphylococcus aureus, read-out: MIC

Structure (SMILES): CC[C@H]1OC(=O)[C@H](C)[C@@H](O[C@H]2C[C@@](C)(OC)[C@@H](O)[C@H](C)O2)[C@H](C)[C@@H](O[C@@H]2O[C@H](C)C[C@H](N(C)C)[C@H]2O)[C@](C)(O)C[C@@H](C)CN(C)[C@H](C)[C@@H](O)[C@]1(C)O [Azithromycin]
- MIC (ATCC 29213 / MSSA, S. aureus ATCC 29213, MSSA / VSSA, test date 2018-10-25 (three repeat lines)): 1 µg/mL (≈ 1.34 µM)
- MIC (ATCC 29213 / MSSA, S. aureus ATCC 29213, MSSA / VSSA, test date 2018-11-07): 1 µg/mL (≈ 1.34 µM)
- MIC (MRSA / NRS 3 / VISA, S. aureus IHMA 1308243, NRS3, MRSA / VISA): > 32 µg/mL
- MIC (MRSA / NRS 4 / VISA, S. aureus IHMA 649380, NRS4, MRSA / VISA): > 32 µg/mL
- MIC (MRSA / NRS 18 / VISA, S. aureus IHMA 649386, NRS18, MRSA / VISA): > 32 µg/mL
- MIC (MRSA / NRS 19 / VISA, S. aureus IHMA 649387, NRS19, MRSA / VISA): > 32 µg/mL
- MIC (MRSA / NRS 21 / VISA, S. aureus IHMA 649388, NRS21, MRSA / VISA): 0.5 µg/mL (≈ 0.668 µM)
- MIC (MRSA / NRS 22 / USA600 / VISA, S. aureus IHMA 649389, NRS22, MRSA / VISA, USA600): > 32 µg/mL
- MIC (MRSA / NRS 23 / VISA, S. aureus IHMA 649390, NRS23, MRSA / VISA): > 32 µg/mL
- MIC (MRSA / NRS 24 / VISA, S. aureus IHMA 649391, NRS24, MRSA / VISA): > 32 µg/mL
- MIC (MRSA / NRS 26, S. aureus IHMA 649392, NRS26, MRSA / VSSA): > 32 µg/mL
- MIC (MRSA / NRS 27 / VISA, S. aureus IHMA 1308248, NRS27, MRSA / VISA): > 32 µg/mL
- MIC (MRSA / NRS 29 / VISA, S. aureus IHMA 1308250, NRS29, MRSA / VISA): > 32 µg/mL
- MIC (MRSA / NRS 37 / VISA, S. aureus IHMA 1308251, NRS37, MRSA / VISA): > 32 µg/mL
- MIC (MRSA / NRS 54, S. aureus IHMA 1308253, NRS54, MRSA / VSSA* (*Expected VAN intermediate, confirmed VAN susceptible twice), test date 2018-11-07): > 32 µg/mL
- MIC (MRSA / NRS 56 / VISA, S. aureus IHMA 1308254, NRS56, MRSA / VISA): > 32 µg/mL
- MIC (MRSA / USA100 / VRSA, S. aureus IHMA 672230, VRS1, MRSA / VRSA, USA100): > 32 µg/mL
- MIC (MRSA / USA100 / VRSA, S. aureus IHMA 672231, VRS2, MRSA / VRSA, USA100): > 32 µg/mL
- MIC (MRSA / USA100 / VRSA, S. aureus IHMA 672234, VRS4, MRSA / VRSA, USA100): > 32 µg/mL
- MIC (MRSA / USA100 / VRSA, S. aureus IHMA 672235, VRS5, MRSA / VRSA, USA100): > 32 µg/mL
- MIC (MRSA / USA100 / VRSA, S. aureus IHMA 672237, VRS7, MRSA / VRSA, USA100): > 32 µg/mL
- MIC (MRSA / USA100 / VRSA, S. aureus IHMA 672238, VRS8, MRSA / VRSA, USA100): > 32 µg/mL
- MIC (MRSA / USA100 / VRSA, S. aureus IHMA 672239, VRS9, MRSA / VRSA, USA100): > 32 µg/mL
- MIC (MRSA / USA100 / VRSA, S. aureus IHMA 1308256, VRS10, MRSA / VRSA, USA100): > 32 µg/mL
- MIC (MRSA / USA100 / VRSA, S. aureus IHMA 1308258, VRS11b, MRSA / VRSA, USA100): > 32 µg/mL
- MIC (MRSA / USA800 / VRSA, S. aureus IHMA 672233, VRS3b, MRSA / VRSA, USA800): > 32 µg/mL
- MIC (MRSA, S. aureus IHMA 1569509, MRSA / VSSA): > 32 µg/mL
- MIC (MRSA, S. aureus IHMA 1575268, MRSA / VSSA): > 32 µg/mL
- MIC (MRSA, S. aureus IHMA 1575629, MRSA / VSSA): 1 µg/mL (≈ 1.34 µM)
- MIC (MRSA, S. aureus IHMA 1577820, MRSA / VSSA): > 32 µg/mL
- MIC (MRSA, S. aureus IHMA 1580300, MRSA / VSSA): 0.5 µg/mL (≈ 0.668 µM)
- MIC (MRSA, S. aureus IHMA 1580940, MRSA / VSSA): > 32 µg/mL
- MIC (MRSA, S. aureus IHMA 1582100, MRSA / VSSA): > 32 µg/mL
- MIC (MRSA, S. aureus IHMA 1583795, MRSA / VSSA): > 32 µg/mL
- MIC (MRSA, S. aureus IHMA 1584223, MRSA / VSSA): 32 µg/mL (≈ 42.7 µM)
- MIC (MRSA, S. aureus IHMA 1585316, MRSA / VSSA): > 32 µg/mL
- MIC (MRSA, S. aureus IHMA 1586780, MRSA / VSSA): 1 µg/mL (≈ 1.34 µM)
- MIC (MRSA, S. aureus IHMA 1587322, MRSA / VSSA): > 32 µg/mL
- MIC (MRSA, S. aureus IHMA 1588127, MRSA / VSSA): 0.5 µg/mL (≈ 0.668 µM)
- MIC (MRSA, S. aureus IHMA 1591462, MRSA / VSSA): 1 µg/mL (≈ 1.34 µM)
- MIC (MRSA, S. aureus IHMA 1592755, MRSA / VSSA): 0.5 µg/mL (≈ 0.668 µM)
- MIC (MRSA, S. aureus IHMA 1592776, MRSA / VSSA): > 32 µg/mL
- MIC (MRSA, S. aureus IHMA 1597106, MRSA / VSSA): > 32 µg/mL
- MIC (MRSA, S. aureus IHMA 1602095, MRSA / VSSA): > 32 µg/mL
- MIC (MRSA, S. aureus IHMA 1611170, MRSA / VSSA): > 32 µg/mL
- MIC (MRSA, S. aureus IHMA 1611612, MRSA / VSSA): > 32 µg/mL
- MIC (MRSA, S. aureus IHMA 1612228, MRSA / VSSA): 16 µg/mL (≈ 21.4 µM)
- MIC (MRSA, S. aureus IHMA 1620441, MRSA / VSSA): > 32 µg/mL
- MIC (MRSA, S. aureus IHMA 1621638, MRSA / VSSA): 1 µg/mL (≈ 1.34 µM)
- MIC (MRSA, S. aureus IHMA 1622252, MRSA / VSSA): 1 µg/mL (≈ 1.34 µM)
- MIC (MRSA, S. aureus IHMA 1622527, MRSA / VSSA): 1 µg/mL (≈ 1.34 µM)
- MIC (MRSA, S. aureus IHMA 1666371, MRSA / VSSA): 0.25 µg/mL (≈ 0.334 µM)
- MIC (MRSA, S. aureus IHMA 1695391, MRSA / VSSA): > 32 µg/mL
- MIC (MRSA, S. aureus IHMA 1703428, MRSA / VSSA): 0.5 µg/mL (≈ 0.668 µM)
- MIC (MRSA, S. aureus IHMA 1720350, MRSA / VSSA): 32 µg/mL (≈ 42.7 µM)
- MIC (MRSA, S. aureus IHMA 1732989, MRSA / VSSA): > 32 µg/mL
- MIC (MRSA, S. aureus IHMA 1742231, MRSA / VSSA): > 32 µg/mL
- MIC (MRSA, S. aureus IHMA 1766357, MRSA / VSSA): 1 µg/mL (≈ 1.34 µM)
- MIC (MSSA / NRS 12 / VISA, S. aureus IHMA 1308244, NRS12, MSSA / VISA): 0.5 µg/mL (≈ 0.668 µM)
- MIC (MSSA / NRS 13 / VISA, S. aureus IHMA 1308245, NRS13, MSSA / VISA): 1 µg/mL (≈ 1.34 µM)
- MIC (MSSA / NRS 14 / VISA, S. aureus IHMA 1308246, NRS14, MSSA / VISA): 0.5 µg/mL (≈ 0.668 µM)
- MIC (MSSA / NRS 17 / VISA, S. aureus IHMA 1308247, NRS17, MSSA / VISA): 8 µg/mL (≈ 10.7 µM)
- MIC (MSSA / NRS 28 / VISA, S. aureus IHMA 1308249, NRS28, MSSA / VISA): > 32 µg/mL
- MIC (MSSA / NRS 52, S. aureus IHMA 1308252, NRS52, MSSA / VSSA* (*Expected VAN intermediate, confirmed VAN susceptible twice), test date 2018-11-07): 0.25 µg/mL (≈ 0.334 µM)
- MIC (MSSA / USA100 / VRSA, S. aureus IHMA 672236, VRS6, MSSA / VRSA, USA100): > 32 µg/mL
- MIC (MSSA, S. aureus IHMA 1563826, MSSA / VSSA): 1 µg/mL (≈ 1.34 µM)
- MIC (MSSA, S. aureus IHMA 1565492, MSSA / VSSA): 1 µg/mL (≈ 1.34 µM)
- MIC (MSSA, S. aureus IHMA 1569499, MSSA / VSSA): 0.5 µg/mL (≈ 0.668 µM)
- MIC (MSSA, S. aureus IHMA 1569754, MSSA / VSSA): > 32 µg/mL
- MIC (MSSA, S. aureus IHMA 1574202, MSSA / VSSA): 0.5 µg/mL (≈ 0.668 µM)
- MIC (MSSA, S. aureus IHMA 1575652, MSSA / VSSA): 1 µg/mL (≈ 1.34 µM)
- MIC (MSSA, S. aureus IHMA 1575779, MSSA / VSSA): > 32 µg/mL
- MIC (MSSA, S. aureus IHMA 1576329, MSSA / VSSA): 1 µg/mL (≈ 1.34 µM)
- MIC (MSSA, S. aureus IHMA 1577800, MSSA / VSSA): 1 µg/mL (≈ 1.34 µM)
- MIC (MSSA, S. aureus IHMA 1578560, MSSA / VSSA): 1 µg/mL (≈ 1.34 µM)
- MIC (MSSA, S. aureus IHMA 1580233, MSSA / VSSA): > 32 µg/mL
- MIC (MSSA, S. aureus IHMA 1580925, MSSA / VSSA): 1 µg/mL (≈ 1.34 µM)
- MIC (MSSA, S. aureus IHMA 1580955, MSSA / VSSA): 1 µg/mL (≈ 1.34 µM)
- MIC (MSSA, S. aureus IHMA 1582586, MSSA / VSSA): 1 µg/mL (≈ 1.34 µM)
- MIC (MSSA, S. aureus IHMA 1582691, MSSA / VSSA): > 32 µg/mL
- MIC (MSSA, S. aureus IHMA 1584230, MSSA / VSSA): 1 µg/mL (≈ 1.34 µM)
- MIC (MSSA, S. aureus IHMA 1587279, MSSA / VSSA): 1 µg/mL (≈ 1.34 µM)
- MIC (MSSA, S. aureus IHMA 1591459, MSSA / VSSA): 0.5 µg/mL (≈ 0.668 µM)
- MIC (MSSA, S. aureus IHMA 1592749, MSSA / VSSA): 1 µg/mL (≈ 1.34 µM)
- MIC (MSSA, S. aureus IHMA 1592751, MSSA / VSSA): 1 µg/mL (≈ 1.34 µM)
- MIC (MSSA, S. aureus IHMA 1594297, MSSA / VSSA): 32 µg/mL (≈ 42.7 µM)
- MIC (MSSA, S. aureus IHMA 1597120, MSSA / VSSA): > 32 µg/mL
- MIC (MSSA, S. aureus IHMA 1597125, MSSA / VSSA): > 32 µg/mL
- MIC (MSSA, S. aureus IHMA 1599157, MSSA / VSSA): 1 µg/mL (≈ 1.34 µM)
- MIC (MSSA, S. aureus IHMA 1599506, MSSA / VSSA): 1 µg/mL (≈ 1.34 µM)
- MIC (MSSA, S. aureus IHMA 1602078, MSSA / VSSA): > 32 µg/mL
- MIC (MSSA, S. aureus IHMA 1604586, MSSA / VSSA): 0.25 µg/mL (≈ 0.334 µM)
- MIC (MSSA, S. aureus IHMA 1604609, MSSA / VSSA): 1 µg/mL (≈ 1.34 µM)
- MIC (MSSA, S. aureus IHMA 1609919, MSSA / VSSA): > 32 µg/mL
- MIC (MSSA, S. aureus IHMA 1622864, MSSA / VSSA): 1 µg/mL (≈ 1.34 µM)
- MIC (MSSA, S. aureus IHMA 1626392, MSSA / VSSA): 0.5 µg/mL (≈ 0.668 µM)
- MIC (MSSA, S. aureus IHMA 1713793, MSSA / VSSA): 1 µg/mL (≈ 1.34 µM)
